Tests used:
[1] = tested on: HS746T; assay: CCK8 antiproliferative assay; assay type: cell-based; conditions: Homo sapiens; HS746T, CCK8, 72 h; read-out: IC50, cell proliferation
Method: (§1) For cytotoxicity assay, the cells grown in the logarithmic phase were seeded into 96-well plates (7 × 10^3 cells/well) for 24 h, then exposed to different concentrations (10, 5, 1, 0.1, 0.01 and 0.001 μM) of the test compounds for 72 h. After attached cells were incubated with CCK8 (Sigma, USA) for another 1–4 h. Then the absorbance at 450 nm was measured using a multifunction microplate reader (Molecular Devices, Flex Station 3), and each experiment was performed at least in triplicate.

[2] = tested on: MKN45; assay: CCK8 antiproliferative assay; assay type: cell-based; conditions: Homo sapiens, MKN-45; MKN45, CCK-8, 72 h; read-out: IC50, cell proliferation
Method: as §1

[3] = biological target: T1, TRKA (Homo sapiens, UniProt P04629); assay: HTRF kinase assay; assay type: biochemical
T1 construct: purchased Invitrogen (c-Met, TRKA, TRKB, TRKC)
Method: (§2) HTRF kinase assay to test the activity of compound 1D228 on c-Met and NTRK kinases: c-Met, TRKA, TRKB and TRKC as well as the Zˊ-Lyte kinase Kit were purchased from Invitrogen. The experiments were performed according to the instructions of the manufacturer. Concentrations consisting of 2 or 10 levels from 0.001 to 1 mM were used for 1D228. Plate was measured on multifunction microplate reader (Molecular Devices, Flex Station 3). Curve fitting and data presentations were performed using Graph Pad Prism version 5.0. Every experiment was repeated at least 3 times.

[4] = biological target: T2, TRKB (Homo sapiens, UniProt Q16620); assay: HTRF kinase assay; assay type: biochemical
T2 construct: purchased Invitrogen
Method: as §2

[5] = biological target: T3, TRKC (Homo sapiens, UniProt Q16288); assay: HTRF kinase assay; assay type: biochemical
T3 construct: purchased Invitrogen (c-Met, TRKA, TRKB, TRKC)
Method: as §2

[6] = biological target: T4, c-Met kinase (Homo sapiens, UniProt P08581); assay: HTRF kinase assay; assay type: biochemical
T4 construct: purchased Invitrogen
Method: as §2

[7] = tested on: Cyclin D1; assay: Western blot of Cyclin D1; assay type: cell-based; conditions: 5 nM and 10 nM
Method: Proteins (25–50 ug/lane) were separated on a 4–12% Bis-Tris NuPAGE gel and blotted onto a PVDF membrane (FluoroTrans; VWR). […] Horseradish peroxidase-conjugated secondary antibodies were from Cell Signaling. Proteins were visualized by enhanced chemiluminescence (Millipore) on ChemiDoc camera (Bio-Rad) and protein expression levels were quantified using the lmageJ software. Full anduncropped western blots are presented in Supplemental File.

[8] = tested on: MNK45 cell line; assay: Apoptosis assay, annexin V and PI staining, flow cytometry; assay type: cell-based, human; conditions: control group 5%
Method: MHCC97H or MKN45 cells were seeded in 6-well plates (3 × 10^4 cells/well) and incubated in the presence or absence of compound 1D228, for the cell apoptosis assay, cells were harvested and incubated with 5 μL of Annexin-V/FITC (Keygen Biotech, China) in binding buffer (10 mM HEPES, 140 mM NaCl, and 2.5 mM CaCl2 at pH 7.4) at room temperature for 15 min. PI solution was then added to the medium for another 10 min-incubation. Almost 10,000 events were collected for each sample and analysed by flow cytometry (Beckman Coulter, Epics XL). For the cell cycle assay, cells were fixed in ice-cold 70% ethanol overnight. After the ethanol was removed the next day, the cells were re-suspended in ice-cold PBS, treated with RNAse A (Keygen Biotech, China) at 37 °C for 30 min, and then incubated with the DNA staining solution propidium iodide (PI, Keygen Biotech, China) at 4 °C for 30 min. Approximately 10,000 events were detected by flow cytometry (Beckman Coulter, Epics XL) at 488 nm. The data regarding the number of cells in different phases of the cell cycle were analysed using EXPO32 ADC analysis software.

[9] = Liver microsomal stability assay; assay type: in vitro ADME; conditions: liver microsomes, pH 7.4
Method: The incubation system (including 0.1 M PH 7.4 phosphate buffer, NADPH generation system, UGT incubation system, 0.5 mg/mL liver microsomal protein and appropriate concentration of drug to be tested) was incubated in a water bath at 37 °C for […]. Each sample was incubated three times in parallel, and an equal volume of pre-chilled acetonitrile was added at preset reaction time points, such as 0, 5, 10, 15, 30 and 60 min. The reaction was terminated by the addition of acetonitrile. The remaining content of the prototype drug in the warm incubation solution was determined by HPLC, HPLC-MC and HPLC-MC/MC.

[10] = tested on: MKN45 xenograft tumor; assay: MKN45 xenograft tumor model; assay type: in vivo, BALB/c nude mice; conditions: ig
Method: Male BALB/c nude mice (5-week old, 18–20 g) were purchased from Beijing Vital River Laboratory Animal Technology (Beijing Vital River LaboratoryAnimal Technology Co., Ltd., Beijing,China) and allowed to acclimate for 1 week, maintained at constant room temperature and fed a standard rodent chow and water. 1 × 10^7 cells/mL cancer cells grown in logarithmic phase were harvested and resuspended in FBS-free 1640 medium. Then, 100 μL of the cell suspension was subcutaneously injected into the right flank of each mouse. When the tumour volume was reached about 600–800 mm^3, it was removed, minced into small pieces of equal volume (2 × 2 × 2 mm^3), and transplanted subcutaneously into the nude mice. When the tumour volume was reached about 200–400 mm^3, the xenograft tumour-bearing nude mice were randomly allocated to five groups (vehicle-treated, 1D228-2mgd-treated, 1D228-4mgd-treated […] Tepotinib-treated groups, with 6 or 8 mice (The number of mice were determined according to previous experience on xenograft tumor models) per group. Each group was dosed by intragastric administration (ig) for 7–14 days. Tumour volume and body weights were recorded every day after drug treatment. At the end of the observation period, the animals were euthanized by cervical dislocation and the tumour bulks were peeled off conformed to the Guide for the Care and Use of Laboratory Animals as published by the US National Institutes of Health (NIH Publication No. 85-23, revised 1996) and approved by the Institutional Ethics Review Board of Binzhou Medical University. There was no blinding was done during the animal experiment. No animals were excluded from the analysis.

[11] = Hematoxylin and eosin histology of major tissues; assay type: in vivo; conditions: following various treatments
Method: Female and male Kunming mice (36 mice each, 18 ~ 25 g) were purchased and housed at the SPF (Beijing) Biotechnology Co. in pathogen-free condition, maintained at constant room temperature and fed a standard rodent chow and water. The mice were randomly divided into experimental group and control group. […]. The heart, liver, lung and kidney of mice in the 750 mg/kg dose group were taken and fixed for HE staining.

[12] = tested on: MKN45 xenograft tumor; assay: MKN45 xenograft: 1D228 alone versus Tepotinib and Larotrectinib; assay type: in vivo, nude mouse
Method: Male BALB/c nude mice (5-week old, 18–20 g) were purchased from Beijing Vital River Laboratory Animal Technology (Beijing Vital River LaboratoryAnimal Technology Co., Ltd., Beijing,China) and allowed to acclimate for 1 week, maintained at constant room temperature and fed a standard rodent chow and water. 1 × 10^7 cells/mL cancer cells grown in logarithmic phase were harvested and resuspended in FBS-free 1640 medium. Then, 100 μL of the cell suspension was subcutaneously injected into the right flank of each mouse. When the tumour volume was reached about 600–800 mm^3, it was removed, minced into small pieces of equal volume (2 × 2 × 2 mm^3), and transplanted subcutaneously into the nude mice. […]

T2 sequence (Q16620 32-822): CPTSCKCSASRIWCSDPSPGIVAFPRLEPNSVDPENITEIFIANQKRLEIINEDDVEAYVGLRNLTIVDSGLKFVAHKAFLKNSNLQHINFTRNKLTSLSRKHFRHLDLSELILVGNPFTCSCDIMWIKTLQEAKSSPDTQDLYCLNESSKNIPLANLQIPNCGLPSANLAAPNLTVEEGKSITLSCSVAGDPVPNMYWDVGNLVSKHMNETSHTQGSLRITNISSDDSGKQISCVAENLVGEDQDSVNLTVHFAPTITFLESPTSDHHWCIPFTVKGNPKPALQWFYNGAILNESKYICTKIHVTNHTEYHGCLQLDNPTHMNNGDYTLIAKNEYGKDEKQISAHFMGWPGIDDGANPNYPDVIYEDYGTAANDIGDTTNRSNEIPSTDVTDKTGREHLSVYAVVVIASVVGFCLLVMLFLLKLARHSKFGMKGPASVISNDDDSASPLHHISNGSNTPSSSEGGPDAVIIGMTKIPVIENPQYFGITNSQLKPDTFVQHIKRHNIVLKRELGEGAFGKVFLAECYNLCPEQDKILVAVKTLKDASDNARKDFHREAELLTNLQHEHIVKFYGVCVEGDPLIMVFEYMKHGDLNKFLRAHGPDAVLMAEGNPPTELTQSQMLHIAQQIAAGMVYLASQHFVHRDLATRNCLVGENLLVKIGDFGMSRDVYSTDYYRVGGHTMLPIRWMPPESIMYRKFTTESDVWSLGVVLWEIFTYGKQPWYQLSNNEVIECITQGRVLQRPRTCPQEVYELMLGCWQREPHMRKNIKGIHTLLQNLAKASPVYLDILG
T4 sequence (P08581 25-1390): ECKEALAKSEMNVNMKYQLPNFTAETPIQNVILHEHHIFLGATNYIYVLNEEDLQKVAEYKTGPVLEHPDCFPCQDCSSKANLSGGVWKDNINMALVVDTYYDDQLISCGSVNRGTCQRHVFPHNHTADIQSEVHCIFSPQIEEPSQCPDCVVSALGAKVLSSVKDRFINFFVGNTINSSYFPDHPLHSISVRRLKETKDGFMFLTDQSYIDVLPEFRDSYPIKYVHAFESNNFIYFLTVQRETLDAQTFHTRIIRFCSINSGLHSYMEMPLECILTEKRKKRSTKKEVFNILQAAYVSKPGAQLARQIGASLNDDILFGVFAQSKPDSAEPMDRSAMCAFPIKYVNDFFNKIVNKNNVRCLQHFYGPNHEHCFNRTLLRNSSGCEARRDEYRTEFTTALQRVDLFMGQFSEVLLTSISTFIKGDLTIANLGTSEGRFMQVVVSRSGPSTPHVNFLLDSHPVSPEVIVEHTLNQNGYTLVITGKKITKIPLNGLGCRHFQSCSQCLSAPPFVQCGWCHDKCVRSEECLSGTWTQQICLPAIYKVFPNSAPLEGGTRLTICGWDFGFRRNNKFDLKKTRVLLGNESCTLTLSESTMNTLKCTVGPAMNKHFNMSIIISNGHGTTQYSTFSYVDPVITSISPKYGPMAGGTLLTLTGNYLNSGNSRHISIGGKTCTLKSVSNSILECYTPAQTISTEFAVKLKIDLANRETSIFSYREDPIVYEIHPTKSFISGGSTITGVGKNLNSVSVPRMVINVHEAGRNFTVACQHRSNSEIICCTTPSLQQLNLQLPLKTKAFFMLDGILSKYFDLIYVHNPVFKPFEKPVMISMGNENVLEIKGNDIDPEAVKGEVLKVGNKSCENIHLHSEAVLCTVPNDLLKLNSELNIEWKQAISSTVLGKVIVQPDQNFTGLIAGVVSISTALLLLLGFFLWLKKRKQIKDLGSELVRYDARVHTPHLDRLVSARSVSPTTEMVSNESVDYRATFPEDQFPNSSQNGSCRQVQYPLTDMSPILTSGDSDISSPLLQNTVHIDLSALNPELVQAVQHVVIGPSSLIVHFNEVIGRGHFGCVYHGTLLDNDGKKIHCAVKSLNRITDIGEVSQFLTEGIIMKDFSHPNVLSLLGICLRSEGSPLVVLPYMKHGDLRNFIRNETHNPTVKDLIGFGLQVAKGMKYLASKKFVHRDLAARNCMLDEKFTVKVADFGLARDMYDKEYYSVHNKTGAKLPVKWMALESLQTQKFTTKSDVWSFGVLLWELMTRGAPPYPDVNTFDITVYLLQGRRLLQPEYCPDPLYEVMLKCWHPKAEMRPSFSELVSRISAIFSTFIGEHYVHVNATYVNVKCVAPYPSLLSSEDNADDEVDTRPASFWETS
T1 sequence (P04629 33-796): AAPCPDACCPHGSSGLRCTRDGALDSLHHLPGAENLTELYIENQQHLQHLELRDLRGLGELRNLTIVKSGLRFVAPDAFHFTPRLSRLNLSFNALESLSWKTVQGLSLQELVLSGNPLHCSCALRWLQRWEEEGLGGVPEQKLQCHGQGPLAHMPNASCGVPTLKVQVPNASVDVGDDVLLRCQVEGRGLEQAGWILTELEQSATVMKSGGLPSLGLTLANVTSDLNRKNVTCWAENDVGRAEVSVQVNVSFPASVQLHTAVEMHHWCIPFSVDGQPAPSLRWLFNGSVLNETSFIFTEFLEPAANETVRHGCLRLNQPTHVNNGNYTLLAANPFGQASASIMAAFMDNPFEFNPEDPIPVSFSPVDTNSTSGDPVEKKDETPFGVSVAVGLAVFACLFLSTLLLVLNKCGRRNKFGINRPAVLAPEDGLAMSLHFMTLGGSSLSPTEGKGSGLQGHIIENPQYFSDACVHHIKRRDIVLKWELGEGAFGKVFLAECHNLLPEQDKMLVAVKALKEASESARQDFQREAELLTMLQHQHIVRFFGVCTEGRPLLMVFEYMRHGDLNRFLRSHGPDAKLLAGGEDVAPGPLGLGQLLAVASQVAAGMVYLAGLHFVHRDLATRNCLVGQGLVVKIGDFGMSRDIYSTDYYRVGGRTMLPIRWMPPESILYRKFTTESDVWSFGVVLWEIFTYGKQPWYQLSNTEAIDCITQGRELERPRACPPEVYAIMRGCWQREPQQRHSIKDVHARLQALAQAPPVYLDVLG
T3 sequence (Q16288 32-839): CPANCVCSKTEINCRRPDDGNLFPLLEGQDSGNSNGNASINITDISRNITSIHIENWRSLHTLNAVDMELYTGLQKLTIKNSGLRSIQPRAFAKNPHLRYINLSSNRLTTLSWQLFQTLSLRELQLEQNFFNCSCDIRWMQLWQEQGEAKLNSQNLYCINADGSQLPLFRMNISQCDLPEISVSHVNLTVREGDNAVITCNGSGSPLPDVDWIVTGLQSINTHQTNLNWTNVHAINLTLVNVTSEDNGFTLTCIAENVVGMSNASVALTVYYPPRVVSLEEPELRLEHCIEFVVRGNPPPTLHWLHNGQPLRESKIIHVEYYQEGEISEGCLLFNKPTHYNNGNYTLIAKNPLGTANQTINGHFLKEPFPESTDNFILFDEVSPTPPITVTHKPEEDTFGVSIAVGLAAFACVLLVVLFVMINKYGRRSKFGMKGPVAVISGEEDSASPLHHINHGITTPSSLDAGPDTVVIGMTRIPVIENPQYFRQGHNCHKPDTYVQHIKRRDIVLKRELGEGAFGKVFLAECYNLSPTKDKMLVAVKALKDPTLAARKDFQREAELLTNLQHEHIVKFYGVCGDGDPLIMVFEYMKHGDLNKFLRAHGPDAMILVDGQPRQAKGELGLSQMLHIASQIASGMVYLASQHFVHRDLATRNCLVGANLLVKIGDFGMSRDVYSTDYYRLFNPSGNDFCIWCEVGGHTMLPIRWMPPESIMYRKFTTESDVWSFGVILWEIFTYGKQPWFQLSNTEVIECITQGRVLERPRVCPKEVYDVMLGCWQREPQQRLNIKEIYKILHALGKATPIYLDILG

`[2H][C@@](C)(c1cccc(-c2ncc(OCC3CCN(C)CC3)cn2)c1)n1nc(-c2cccc(C#N)c2)ccc1=O` [1D228] gave an IC50 [1] of 890 nM, an IC50 [2] of 1 nM and an IC50 [3] of 111 nM. For the same molecule, the IC50 [4] was 23.7 nM, the IC50 [5] was 25.5 nM and the IC50 [6] was 0.98 nM. For the same molecule, the “Cyclin D1 expression” value [7] was “substantially inhibited”, the Apoptosis ([8]; annexin V / PI staining) was 53–75% and the “Apoptosis, times higher than in the control group” value [8] was 10–15 times. The half-life ([9]; cynomolgus monkey, Macaca fascicularis liver microsome) was 27.6 h, the half-life ([9]; mouse, CD - 1 mice liver microsome) was 1.7 h and the TGI ([10]; 2 mg/kg/d) was 74.4%. For the same molecule, the TGI ([10]; 4 mg/kg/d) was 90.7%, the TGI ([10]; 8 mg/kg/d) was 94.8% and the “Toxicity in H&E-stained heart, liver, lung and kidney” value [11] was “no evidence of toxicity”. The Tumor volume reduction ([12]; MKN45 gastric cancer nude mouse transplant tumor) was about 90% and the “Body weight of tumor bearing mice” value ([12]; MKN45 xenograft) was “the opposite was true”.

Source: article PMC10636171 (Cell Death & Disease, 2023)
